From US6783949B1, “Processes for determining whether a test substance contains lipases or lipase inhibitors” (Aventis Pharma Deutschland GmbH, priority 1999, dated 2004)
Like-named read-outs stand apart in the source and are kept apart here.

Columns and labels:
lipases, preferably HSL = target: T1, lipases, preferably HSL (Rattus norvegicus, UniProt P15304); experiment: Synthesized NBD-acylglycerides as substrates of lipases; assay type: biochemical
T1 sequence (P15304 1-768 isoform P15304-2): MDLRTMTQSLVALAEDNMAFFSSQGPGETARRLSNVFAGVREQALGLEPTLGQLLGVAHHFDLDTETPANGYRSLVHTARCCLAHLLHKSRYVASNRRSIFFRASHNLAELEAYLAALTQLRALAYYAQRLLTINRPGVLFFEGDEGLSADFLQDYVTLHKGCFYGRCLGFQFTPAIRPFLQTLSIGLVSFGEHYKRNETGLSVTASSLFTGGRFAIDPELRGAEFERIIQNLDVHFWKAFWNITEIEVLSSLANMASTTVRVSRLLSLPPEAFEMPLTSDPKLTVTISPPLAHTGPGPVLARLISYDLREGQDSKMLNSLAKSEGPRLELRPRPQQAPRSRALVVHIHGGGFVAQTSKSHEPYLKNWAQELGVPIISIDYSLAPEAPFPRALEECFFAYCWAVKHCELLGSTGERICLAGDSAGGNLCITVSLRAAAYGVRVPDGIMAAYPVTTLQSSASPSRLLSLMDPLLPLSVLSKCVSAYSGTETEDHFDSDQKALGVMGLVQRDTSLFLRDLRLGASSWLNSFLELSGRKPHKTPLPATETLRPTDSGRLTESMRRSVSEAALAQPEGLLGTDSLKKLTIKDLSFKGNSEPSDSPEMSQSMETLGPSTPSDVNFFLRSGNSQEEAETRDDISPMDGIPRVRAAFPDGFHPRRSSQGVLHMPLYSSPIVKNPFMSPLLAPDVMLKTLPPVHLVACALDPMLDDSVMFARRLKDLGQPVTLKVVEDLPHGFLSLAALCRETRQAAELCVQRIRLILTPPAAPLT

HSL = target: T2, HSL (Rattus norvegicus, UniProt P15304); experiment: Indirect NAG assay (extinction increase at 481 nm); assay type: biochemical; settings: for Absorption at 481 nm: HSL 20 μg, 60 min, NAG 0.05 mg/ml
T2 construct: The partially purified HSL can be stored at −70° C. for 4 to 6 weeks; from tissue; host or cells: rat epididymal fat cells (male Wistar rats)
T2 sequence (P15304 1-768 isoform P15304-2): T1 sequence (P15304 1-768 isoform P15304-2)
Procedure: A typical reaction is carried out at 30° C. for 60 min, for example in 1.5 ml Eppendorf vessels or 96-hole plates. […] 180 μl of the substrate solution (20 μg/ml of phosphatidylcholine, 10 μg/ml of phosphatidylinositol, 50 μg/ml of NAG in assay buffer) are added. After a preincubation for 15 min at 30° C., 20 μl of HSL in assay buffer are pipetted in and the extinction is immediately measured (see above) at 481 nm in a cuvette photometer (0.5 ml cuvette) or microtiter plate reader. After a certain incubation time, which is variable and depends on the chosen enzyme concentration and can be between 2 and 240 minutes, in this case incubation at 30° C. for 60 min, the extinction is measured again. The increase in the extinction in the yellow region, in this case at 481 nm, is a measure of the enzyme activity.
Isolated rat fat cells are obtained from epididymal fatty tissue from untreated male rats (Wistar, 220-250 g) by collagenase treatment according to published processes. The fat cells from 10 rats are washed three times by flotation with 50 ml each of homogenization buffer ([…], pH 7.4, 0.25 M sucrose, 1 mM ethylenediamine-N,N,N′,N′-tetraacetic acid (EDTA), 1 mM dithiothreitol (DTT), 10 μg/ml of leupeptin, 10 μg/ml of antipain, 20 μg/ml of pepstatin) and finally taken up in 10 ml of homogenization buffer. The fat cells are homogenized in a Teflon-in-glass homogenizer (Braun-Melsungen) by 10 strokes at 1500 rpm and 15° C. The homogenizate is centrifuged (Sorvall SM24 tubes, 5000 rpm, 10 min, 4° C.). The […] between the overlying fatty layer and the pellet is removed and the centrifugation is repeated. The […] resulting from this is centrifuged again (Sorvall SM24 tubes, 20,000 rpm, 45 min, 4° C.). […] After incubation for 60 min at 4° C. (shake at intervals of 15 min), the batch is centrifuged (Sorvall SM24 tubes, 3000 rpm, 10 min, 4° C.). The supernatant is brought to pH 5.2 by addition of glacial acetic acid and incubated at 4° C. for 30 min. […] The suspension is dialyzed overnight at 4° C. against 25 mM TRIS/HCl, pH 7.4, 50% glycerol, 1 mM DTT, and 10 μg/ml of leupeptin, pepstatin, and antipain and then applied to a hydroxylapatite column (0.1 g per 1 ml of suspension, equilibrated with 10 mM potassium phosphate, pH 7.0, 30% glycerol, 1 mM DTT). The column is washed with four volumes of equilibration buffer at a flow rate of 20 to 30 ml/h. The HSL is eluted with a volume of equilibration buffer which contains 0.5 M potassium phosphate, then dialyzed (see above) and concentrated 5 to 10 times by ultrafiltration (Amicon Diaflo PM 10 filter) at 4° C. The partially purified HSL can be stored at −70° C. for 4 to 6 weeks.
6 mg of phosphatidylcholine and 6 mg of phosphatidylinositol are dissolved in 1 ml of chloroform each. 10 mg of NAG are dissolved in 1 ml of chloroform. […] The chloroform (225 μl total volume) is completely removed by overblowing with a stream of N2. The dried substrate can be stored at 4° C. for up to three days. For the preparation of the phospholipid vesicles/micelles having intercalated NAG (on the test day), the dried substrate is taken up in 20 ml of assay buffer (25 mM TRIS/HCl, pH 7.4; 150 mM NaCl) and two ultrasonic treatments with an ultrasonic probe (Branson Sonifier type 11, standard microtip): 1st treatment setting 2, 2×1 min, in between in each case 1 min on ice; 2nd treatment setting 4, 2×1 min, in between in each case 1 min on ice. […] Before use as a substrate (within the next 2 h), the solution is additionally incubated on ice for 15 min.
The assay is carried out at 30° C. for 60 min in 1.5 ml Eppendorf vessels or 96-hole plates.

[1] = Substrate stability towards detergents and solvents (extinction at 550 nm); assay type: physicochemical; settings: for Absorption at 550 nm: NAG 0.05 mg/ml, 37° C., 180 min

| Compound | Activity as substrate of lipases (lipases, preferably HSL) | Effect on the HSL activity (HSL) | Absorption at 550 nm ([1]; agent 0.05 %) | Absorption at 550 nm ([1]; agent 0.1 %) | Absorption at 550 nm ([1]; agent 0.2 %) | Absorption at 550 nm ([1]; agent 0.5 %) | Absorption at 550 nm ([1]; agent 1 %) | Absorption at 550 nm ([1]; agent 2 %) | Absorption at 550 nm ([1]; agent 5 %) | Absorption at 550 nm ([1]; agent 10 %) | other results |
| --- | --- | --- | --- | --- | --- | --- | --- | --- | --- | --- | --- |
| 2-Hydroxy-3-[12-(7-nitrobenzo[1,2,5]oxadiazol-4-ylamino)-odecanoyloxy]propyl hexadecanoate [Compound (6)] | decrease in activity |  |  |  |  |  |  |  |  |  |  |
| O=C(CCCCCCCCCCCNc1ccc([N+](=O)[O-])c2nonc12)OC[C@@H](O)CO [(3a), (S)-2,3-Dihydroxypropyl 12-(7-nitrobenzo[1,2,5]oxadiazol-4-ylamino) dodecanoate] | identical biological activity |  |  |  |  |  |  |  |  |  |  |
| O=C(CCCCCCCCCCCNc1ccc([N+](=O)[O-])c2nonc12)OC[C@H](O)CO [Compound (3b), (R)-2,3-dihydroxypropyl 12-(7-nitrobenzo[1,2,5]oxadiazol-4-ylamino)dodecanoate] | identical biological activity |  |  |  |  |  |  |  |  |  |  |
| CC(=O)OCC(COC(=O)CCCCCCCCCCCNc1ccc([N+](=O)[O-])c2nonc12)OC(C)=O (stereo not drawn) [Compound (4), 2-Acetoxy-3-[12-(7-nitrobenzo[1,2,5]oxadiazol-4-ylamino)-dodecanoyloxy]propyl acetate] | decrease in activity |  |  |  |  |  |  |  |  |  |  |
| CN(C)C=O [DMF, N,N-Dimethylformamide] |  | significant loss in activity | 3121 ± 294 arb. units | 2655 ± 308 arb. units | 1952 ± 299 arb. units | 1234 ± 234 arb. units | 654 ± 112 arb. units | 251 ± 82 arb. units | 105 ± 42 arb. units | 38 ± 10 arb. units | NAG released from the phospholipid/vesicle structures ([1]; 1% agent): over 80% |
| C[S+](C)[O-] [DMSO, Dimethyl sulfoxide] |  |  | 3003 ± 259 arb. units | 3199 ± 302 arb. units | 2984 ± 273 arb. units | 3055 ± 289 arb. units | 2845 ± 254 arb. units | 2317 ± 266 arb. units | 1432 ± 187 arb. units | 372 ± 51 arb. units | Reduction of the enzyme activity (HSL; 0.5% agent): 10%; Decrease in the enzyme activity (arithmetically) (HSL; 1% agent, corrected for substrate dissolution): 20%; Absorption at 481 nm (HSL; agent 0.05 %): 3423 ± 286 arb. units; Absorption at 481 nm (HSL; agent 0.1 %): 3320 ± 319 arb. units; Absorption at 481 nm (HSL; agent 0.2 %): 3301 ± 276 arb. units; Absorption at 481 nm (HSL; agent 0.5 %): 3199 ± 235 arb. units; Absorption at 481 nm (HSL; agent 1 %): 3156 ± 196 arb. units; Absorption at 481 nm (HSL; agent 2 %): 1488 ± 213 arb. units; Absorption at 481 nm (HSL; agent 5 %): 945 ± 169 arb. units; Absorption at 481 nm (HSL; agent 10 %): 272 ± 42 arb. units; Reduction of the amount of released NBD-FA (HSL; up to 1% agent): approximately 10%; Decrease of the extinction (amount of substrate) ([1]; 1% agent): 10% |
| CCO [Ethanol] |  |  | 3147 ± 288 arb. units | 3056 ± 213 arb. units | 3097 ± 253 arb. units | 2995 ± 231 arb. units | 2834 ± 256 arb. units | 2510 ± 194 arb. units | 1935 ± 163 arb. units | 873 ± 103 arb. units | Absorption at 481 nm (HSL; agent 0.05 %): 3776 ± 253 arb. units; Absorption at 481 nm (HSL; agent 0.1 %): 4093 ± 387 arb. units; Absorption at 481 nm (HSL; agent 0.2 %): 4894 ± 325 arb. units; Absorption at 481 nm (HSL; agent 0.5 %): 4231 ± 296 arb. units; Absorption at 481 nm (HSL; agent 1 %): 3541 ± 294 arb. units; Absorption at 481 nm (HSL; agent 2 %): 2143 ± 215 arb. units; Absorption at 481 nm (HSL; agent 5 %): 1327 ± 143 arb. units; Absorption at 481 nm (HSL; agent 10 %): 423 ± 55 arb. units; Effect on the HSL activity (HSL; between 0.1 and 1% agent): increase in the HSL activity |
| CO [Methanol] |  | increase in the HSL activity | 3056 ± 243 arb. units | 3102 ± 276 arb. units | 2945 ± 241 arb. units | 2683 ± 210 arb. units | 2534 ± 191 arb. units | 1985 ± 165 arb. units | 1438 ± 121 arb. units | 475 ± 92 arb. units |  |
| CCCCCCCCCCCCOS(=O)(=O)[O-].[Na+] [SDS, Sodium dodecyl sulfate] |  |  | 3063 ± 288 arb. units | 2935 ± 254 arb. units | 2769 ± 275 arb. units | 2506 ± 301 arb. units | 2296 ± 252 arb. units | 1413 ± 178 arb. units | 603 ± 89 arb. units | 102 ± 12 arb. units |  |
| CC(C)=O [acetone] |  | increase in the HSL activity |  |  |  |  |  |  |  |  |  |
| Triton ® X-100 [TX-100] |  | increase in the HSL activity | 3166 ± 308 arb. units | 3247 ± 253 arb. units | 3119 ± 277 arb. units | 2954 ± 248 arb. units | 2154 ± 199 arb. units | 956 ± 101 arb. units | 489 ± 77 arb. units | 167 ± 45 arb. units |  |
